In patent US20080161348A1, “PTX3-GENE EXPRESSION INHIBITOR” (KOWA CO., LTD., priority 2002, published 2008):

How the values were obtained:
[1] = system: PTX3 gene; assay: PTX3 gene expression analysis by GeneChip array in HUVEC; assay type: cell-based, human; settings: 8 hours after addition, control 1113.0
Method: (§1) Two days after inoculation of normal human umbilical vein endothelial cells (HUVEC) or human coronary artery smooth muscle cells (HCASMC) at 3×10^5 cells/10 cm dish, pitavastatin calcium or atorvastatin calcium was added to 1.1 μmol/L and 6.6 μmol/L, respectively. Dimethyl sulfoxide, a solvent for both of the active ingredients, was added to a control (final concentration: 0.0066 v/v %). Eight hours after the addition, total RNA was extracted with “ISOGEN” (trade mark, product of NIPPON GENE CO., LTD.). The following procedures was conducted in accordance with the procedures manual of Affymetrix. Inc. Described specifically, mRNA was isolated from the above-obtained total RNA, and based on the mRNA, cDNA was synthesized. Further, biotin-labeled cRNA was synthesized by in vitro transcription. Subsequent to purification, the biotin-labeled cRNA was subjected to fragmentation by heat treatment to prepare fragmented cRNA for use in a gene expression analysis.
(§2) Gene expression analysis method: The fragmented CRNA was poured into “Hugene Human FL Array” (trade name, product of Affymetrix, Inc.), and hybridization was conducted at 45° C. for 16 hours. […] The information was analyzed by “GENECHIP SOFTWARE” (trade name, product of Affymetrix, Inc.) to compare expression levels.

[2] = system: PTX3 gene; assay: PTX3 gene expression analysis by GeneChip array in HCASMC; assay type: cell-based, human; settings: 8 hours after addition, control 1028.3
Method: as §1, §2

[3] = system: PTX3 gene; assay: PTX3 gene expression by RT-PCR and agarose gel electrophoresis in HUVEC; assay type: cell-based, human; settings: both 8 hours later and 24 hours later
Method: (§3) Two days after inoculation of HUVEC at 3×10^5 cells/10 cm dish, pitavastatin calcium or atorvastatin calcium was added to 1.1 μmol/L and 6.6 μmol/L, respectively. To ascertain possible concentration dependency of PTX3 gene expression suppressing effect of pitavastatin, pitavastatin calcium was also added to 1 μmol/L and 10 μmol/L upon elapsed time of 2 days after inoculation of HUCEC or HCASMC at 3×10^5 cells/10 cm dish. To controls under the respective conditions, dimethyl sulfoxide, a solvent for both of the active ingredients, was added (final concentration: 0.0066 v/v %) Eight or 24 hours after the addition, total RNA was extracted with “ISOGEN” (trade mark, product of NIPPON GENE CO., LTD.). The total RNA was subjected to RT-PCR in a manner known per se in the art, and amplified DNA fragments were subjected to agarose gel electrophoresis to compare expression levels. • Reaction conditions and the like for PT-PCR:
(§4) PT reaction: Conducted using “RNA PCR Core Kit” (trade name, product of Roche Molecular Systems, Inc.).
PCR: Using “Expanded™ High Fidelity PCR System” (trade name, manufactured of Boehringer Mannheim AG), thermal cycling was conducted through 25 cycles according to the following schemes: 95° C. for 1 minute—57° C. for 1 minute—72° C. for 1 minute. Incidentally, as PCR primers, the followings were used in sets: SEQ ID No:1 (Forward) and SEQ ID No: 2 (Reverse) in the case of PTX3; base SEQ ID No:3 (Forward) and SEQ ID No: 4 (Reverse) in the case of GAPDH.

[4] = system: PTX3 gene; assay: PTX3 gene expression by RT-PCR and agarose gel electrophoresis in HCASMC; assay type: cell-based, human; settings: 1 μmol/L and 10 μmol/L, both 8 hours later and 24 hours later
Method: as §3, §4
PCR: Using “Expanded™ High Fidelity PCR System” (trade name, manufactured of Boehringer Mannheim AG), thermal cycling was conducted through 25 cycles according to the following schemes: 95° C. for 1 minute—57° C. for 1 minute—72° C. for 1 minute. […]

[5] = system: PTX3 gene; settings: constant expression in synovial cells; Clin. Exp. Immunol., 119(1), 196-202 (2000); cited from earlier work

With `CC(C)c1c(C(=O)Nc2ccccc2)c(-c2ccccc2)c(-c2ccc(F)cc2)n1CC[C@@H](O)C[C@@H](O)CC(=O)O` [atorvastatin calcium, (3R,5R)-7-[2-(4-fluorophenyl)-5-isopropyl-3-phenyl-4-phenylcarbamonyl-1H-pyrrol-1-yl]-3,5-dihydroxyheptanoic acid] the “expression of PTX3 gene in HUVEC” value ([1]; 6.6 μmol/L) was 39.2, the “expression of PTX3 gene in HCASMC” value ([2]; 6.6 μmol/L) was 432.1 and the “expression of PTX3 gene in HUVEC compared with the control (RT-PCR)” value ([3]; 6.6 μmol/L) was “suppressed”.

For `O=C(O)C[C@H](O)C[C@H](O)/C=C/c1c(C2CC2)nc2ccccc2c1-c1ccc(F)cc1` [pitavastatin calcium, (3R,5S, 6 E)-7-[2-cyclopropyl-4-(4-fluorophenyl)-3-quinolyl]-3,5-dihydroxy-6-heptenoic acid], the “expression of PTX3 gene in HUVEC” value ([1]; 1.1 μmol/L) was 32.7, the “expression of PTX3 gene in HCASMC” value ([2]; 1.1 μmol/L) was 452.5 and the “concentration dependency of PTX3 gene expression suppression in HUVEC (RT-PCR)” value ([3]; 1 μmol/L and 10 μmol/L) was “concentration-dependently suppressed”. The “expression of PTX3 gene in HUVEC compared with the control (RT-PCR)” value ([3]; 1.1 μmol/L) was “suppressed” and the “concentration dependency of PTX3 gene expression suppression in HCASMC (RT-PCR)” value [4] was “concentration-dependently suppressed”.

For “IFN-γ: inteferon-γ (IFN-γ), known from literature to suppress PTX3 gene expression”, the “expression of PTX3 gene in synovial cells of a rheumatoid arthritis patient” value [5] is listed as “suppressed”.

For TGF-β, the “expression of PTX3 gene in synovial cells of a rheumatoid arthritis patient” value [5] is given as “suppressed”.
